From patent US20240208968A1, “ALPHA V BETA 6 AND ALPHA V BETA 1 INTEGRIN INHIBITORS AND USES THEREOF” (DiCE Molecules SV, Inc., priority 2021, published 2024) come the findings set out here.

The target of test [1] is αvβ1 (Homo sapiens, UniProt P05556+P06756). Nature of the test: Solid Phase Integrin αvβ1 Assay. The test is classed as binding. In a few lines: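 Compound competes for αvβ1 binding to immobilized TGFb1-LAP (1 µg/mL coat) in Mn2+ (1 mM MnCl2), 2% BSA binding buffer over 90 min at room temperature, integrin added at 0.2 µg/mL. Read-out: streptavidin-HRP/TMB; IC50 from Levenberg-Marquardt four-parameter fit.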
Chain of αvβ1 (P06756 31-992 limits assumed): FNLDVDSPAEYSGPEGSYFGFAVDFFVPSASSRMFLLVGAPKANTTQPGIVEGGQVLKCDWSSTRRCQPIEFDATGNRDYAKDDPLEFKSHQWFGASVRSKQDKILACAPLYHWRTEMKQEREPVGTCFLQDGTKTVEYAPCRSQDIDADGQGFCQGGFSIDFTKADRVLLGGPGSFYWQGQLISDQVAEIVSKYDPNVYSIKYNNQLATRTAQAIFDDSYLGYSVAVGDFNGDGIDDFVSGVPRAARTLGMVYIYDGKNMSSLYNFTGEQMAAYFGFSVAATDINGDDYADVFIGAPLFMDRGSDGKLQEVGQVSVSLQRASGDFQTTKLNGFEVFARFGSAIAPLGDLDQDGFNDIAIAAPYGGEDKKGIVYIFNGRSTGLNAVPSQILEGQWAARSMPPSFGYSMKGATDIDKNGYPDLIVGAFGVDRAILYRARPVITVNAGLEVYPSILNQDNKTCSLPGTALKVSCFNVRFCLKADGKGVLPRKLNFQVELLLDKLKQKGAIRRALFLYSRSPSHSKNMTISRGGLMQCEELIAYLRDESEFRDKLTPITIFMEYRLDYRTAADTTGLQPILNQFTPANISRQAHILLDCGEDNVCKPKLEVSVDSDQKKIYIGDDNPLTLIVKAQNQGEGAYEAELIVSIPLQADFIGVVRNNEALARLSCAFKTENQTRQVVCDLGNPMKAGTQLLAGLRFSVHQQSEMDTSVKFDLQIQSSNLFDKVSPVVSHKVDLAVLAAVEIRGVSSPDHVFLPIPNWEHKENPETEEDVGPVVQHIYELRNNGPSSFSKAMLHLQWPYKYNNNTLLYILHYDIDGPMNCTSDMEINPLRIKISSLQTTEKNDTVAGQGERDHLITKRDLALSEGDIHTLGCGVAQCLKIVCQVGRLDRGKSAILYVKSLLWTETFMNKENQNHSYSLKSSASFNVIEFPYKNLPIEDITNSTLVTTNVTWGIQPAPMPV
Chain of αvβ1 (P05556 21-728 limits assumed): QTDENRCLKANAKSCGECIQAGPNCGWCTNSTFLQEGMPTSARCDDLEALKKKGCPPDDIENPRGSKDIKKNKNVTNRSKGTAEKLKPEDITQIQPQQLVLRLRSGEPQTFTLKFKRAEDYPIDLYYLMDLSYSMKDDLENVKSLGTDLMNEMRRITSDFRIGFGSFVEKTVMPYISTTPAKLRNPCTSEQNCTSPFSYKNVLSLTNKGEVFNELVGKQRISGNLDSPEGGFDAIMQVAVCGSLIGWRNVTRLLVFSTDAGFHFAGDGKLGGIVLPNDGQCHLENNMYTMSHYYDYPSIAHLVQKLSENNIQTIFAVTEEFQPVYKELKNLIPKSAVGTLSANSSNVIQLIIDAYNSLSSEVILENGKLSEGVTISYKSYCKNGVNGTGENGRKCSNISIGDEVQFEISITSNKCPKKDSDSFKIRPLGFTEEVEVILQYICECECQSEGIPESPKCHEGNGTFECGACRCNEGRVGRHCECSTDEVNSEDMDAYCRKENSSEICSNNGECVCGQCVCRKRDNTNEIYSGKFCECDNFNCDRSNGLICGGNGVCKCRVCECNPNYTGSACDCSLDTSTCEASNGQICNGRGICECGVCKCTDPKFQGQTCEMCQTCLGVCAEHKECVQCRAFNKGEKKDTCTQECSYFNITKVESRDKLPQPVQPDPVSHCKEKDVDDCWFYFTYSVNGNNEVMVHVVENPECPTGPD

Test [2] concerns the target αvβ6 (Homo sapiens, UniProt P06756+P18564). Nature of the test: Solid Phase Integrin αvβ6 Assay. The test is classed as binding. Summed up: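 Inhibition of αvβ6 binding to immobilized recombinant TGFb1-LAP (1 μg/mL coating), 1 h at room temperature with 1 mM MnCl2 in BSA/TBST buffer, integrin diluted to 0.2 μg/mL before addition. Streptavidin-HRP/TMB read-out; four-parameter logistic fitting gave IC50.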

Structures can show the parent of a compound that is named as a salt.

Chain of αvβ6 (P06756 31-992 limits assumed): as the sequence (P06756 31-992 limits assumed) above
Chain of αvβ6 (P18564 22-707 limits assumed): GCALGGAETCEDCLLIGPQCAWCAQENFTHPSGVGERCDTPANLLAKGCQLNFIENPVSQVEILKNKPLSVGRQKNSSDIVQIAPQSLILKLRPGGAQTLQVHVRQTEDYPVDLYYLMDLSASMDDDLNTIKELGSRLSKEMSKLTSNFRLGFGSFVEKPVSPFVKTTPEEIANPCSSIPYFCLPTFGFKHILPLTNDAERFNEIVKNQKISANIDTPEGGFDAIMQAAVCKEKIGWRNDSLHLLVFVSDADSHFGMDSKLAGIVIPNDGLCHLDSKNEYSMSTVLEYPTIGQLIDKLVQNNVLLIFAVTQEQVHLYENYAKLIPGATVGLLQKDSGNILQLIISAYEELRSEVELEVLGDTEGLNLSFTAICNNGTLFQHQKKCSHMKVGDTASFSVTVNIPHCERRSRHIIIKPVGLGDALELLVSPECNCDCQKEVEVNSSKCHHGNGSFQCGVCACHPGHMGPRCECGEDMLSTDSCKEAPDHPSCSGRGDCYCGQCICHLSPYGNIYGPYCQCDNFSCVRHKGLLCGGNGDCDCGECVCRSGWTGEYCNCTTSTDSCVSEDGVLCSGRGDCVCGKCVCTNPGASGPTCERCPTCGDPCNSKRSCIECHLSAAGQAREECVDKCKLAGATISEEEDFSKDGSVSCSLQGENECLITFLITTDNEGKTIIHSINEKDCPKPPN

Consider `O=C(O)C[C@H](NC(=O)[C@@H]1CCCN(CCCc2ccc3c(n2)NCCC3)C1)c1ccc2c(c1)CCCC2` [Compound 204-A, 3-((R)-1-(3-(5,6,7,8-tetrahydro-1,8-naphthyridin-2-yl)propyl)piperidine-3-carboxamido)-3-(5,6,7,8-tetrahydronaphthalen-2-yl)propanoic acid], for which the 50% inhibitory concentration (IC50) in test [1] and in test [2] was less than 100 nM throughout.
As for `O=C(N[C@@H](CNC(=O)[C@@H]1CCCN(CCCc2ccc3c(n2)NCCC3)C1)C(=O)O)c1c(Cl)cccc1Cl` [Compound 362], the IC50 in test [1] and in test [2] was less than 100 nM in each case.
`O=C(O)[C@@H](CCO[C@@H]1CCCN(CCCc2ccc3c(n2)NCCC3)C1)Nc1ncnc2cc(C(F)(F)F)ccc12` [Compound 497]: the 50% inhibitory concentration (IC50) in test [1] is 100 to 1000 nM; in test [2], less than 100 nM.
In the same order, the values of `O=C(NC[C@H](NC(=O)[C@@H]1CC2CCC1CC2)C(=O)O)[C@@H]1CCCN(CCCc2ccc3c(n2)NCCC3)C1` [Compound 304] are less than 100 nM and less than 100 nM.
The like results for `CC1(C)CN(c2cccc([C@H](CO[C@@H]3CCCN(CCCc4ccc5c(n4)NCCC5)C3)CC(=O)O)c2)CCO1` [Compound 569] were, in that order, 100 to 1000 nM and 100 to 1000 nM.
In the same order, the values of `CC1(C)CCCN(c2cccc([C@@H](CO[C@@H]3CCCN(CCCc4ccc5c(n4)NCCC5)C3)CC(=O)O)c2)C1` [Compound 570] are less than 100 nM and less than 100 nM.
With `O=C(O)C[C@H](NC(=O)[C@@H]1CCCN(CCCc2ccc3c(n2)NCCC3)C1)c1ccc2c(c1)OCC2` [Compound 613], the IC50 in test [1] and in test [2] was less than 100 nM throughout.
For `C[C@@H]1C[C@H](C(=O)NC[C@@H](C(=O)O)c2ccc3ccccc3c2)CN(CCCc2ccc3c(n2)NCCC3)C1` [Compound 641], the IC50 in test [1] and in test [2] was 100 to 1000 nM in each case.
As to `O=C(O)[C@H](CCO[C@@H]1CCCN(CCCc2ccc3c(n2)NCCC3)C1)c1ccc(C2CC2)cc1` [Compound 516], the IC50 in test [1] and in test [2] was less than 100 nM throughout.
With `O=C(O)CC(CC(=O)N[C@H]1CCN(C(=O)CCCc2ccc3c(n2)NCCC3)C1)c1ccccc1` (stereo partly drawn) [Compound 520], the 50% inhibitory concentration (IC50) is less than 100 nM in test [1] and 100 to 1000 nM in test [2].
With `O=C(O)CC(CO[C@H]1CCCN(CCCc2ccc3c(n2)NCCC3)C1)c1ccccc1` (stereo partly drawn) [Compound 337], the IC50 in test [1] and in test [2] was 100 to 1000 nM in each case.
For the molecule `O=C(O)C[C@H](NC(=O)[C@@H]1CCCN(CCCc2ccc3c(n2)NCCC3)C1)c1ccccc1` [Compound 202, (S)-3-phenyl-3-((R)-1-(3-(5,6,7,8-tetrahydro-1,8-naphthyridin-2-yl)propyl)piperidine-3-carboxamido)propanoic acid hydrochloride], the IC50 in test [1] and in test [2] was less than 100 nM throughout.
With `O=C(NC[C@@H](C(=O)O)c1cccc2ccccc12)[C@@H]1CCCN(CCCc2ccc3c(n2)NCCC3)C1` [Compound 250-A, 2-(naphthalen-1-yl)-3-((R)-1-(3-(5,6,7,8-tetrahydro-1,8-naphthyridin-2-yl)propyl)piperidine-3-carboxamido)propanoic acid], the half-maximal inhibitory concentration (IC50) in test [1] and in test [2] was less than 100 nM in each case.
For `O=C(O)[C@@H](CCO[C@@H]1CCCN(CCc2ccc3c(n2)NCCC3)C1)Nc1ncnc2ccccc12` [Compound 406], the IC50 in test [1] and in test [2] was 100 to 1000 nM throughout.
`O=C(O)[C@](O)(CO[C@@H]1CCCN(Cc2ccc3c(n2)NCCC3)C1)c1ccccc1` [Compound 478]: the IC50 in test [1] and in test [2] was more than 1000 nM in each case.
`CC1(C)CN(c2cccc([C@H](CO[C@@H]3CCCN(CCCc4ccc5c(n4)NCCC5)C3)CC(=O)O)c2)CCC1(F)F` [Compound 651]: the IC50 in test [1] and in test [2] was less than 100 nM in each case.
Turning to `Cc1cc([C@@H](CO[C@@H]2CCCN(CCCc3ccc4c(n3)NCCC4)C2)CC(=O)O)cc(N2CCOC(C)(C)C2)c1` [Compound 579], the 50% inhibitory concentration (IC50) in test [1] and in test [2] was less than 100 nM in each case.
Turning to `O=C(O)C[C@@H](CO[C@@H]1CCCN(CCCc2ccc3c(n2)NCCC3)C1)c1cccc(-c2ccccc2)c1` [Compound 457], the IC50 was more than 1000 nM in test [1] and 100 to 1000 nM in test [2].
Regarding `O=C(O)C[C@H](NC(=O)[C@@H]1CN(CCCc2ccc3c(n2)NCCC3)CC(F)(F)C1)c1ccccc1` [Compound 291-A, (3S)-3-(5,5-difluoro-1-(3-(5,6,7,8-tetrahydro-1,8-naphthyridin-2-yl)propyl)piperidine-3-carboxamido)-3-phenylpropanoic acid], the IC50 in test [1] is 100 to 1000 nM; in test [2], less than 100 nM.
The like results for `O=C(NC[C@H](Nc1ncncc1C(F)(F)F)C(=O)O)[C@@H]1CCCN(CCCc2ccc3c(n2)NCCC3)C1` [Compound 563] were, in that order, less than 100 nM and less than 100 nM.
As to `O=C(O)C[C@H](NC[C@@H]1CCCN(CCCc2ccc3c(n2)NCCC3)C1)c1cccc(C2CC2)c1` [Compound 529], the concentration for half-maximal inhibition (IC50) in test [1] and in test [2] was 100 to 1000 nM each time.
On to `C[C@@H]1OCCN(c2cccc([C@H](CC(=O)O)NC(=O)[C@@H]3CCCN(CCCc4ccc5c(n4)NCCC5)C3)c2)[C@H]1C` [Compound 584], for which the 50% inhibitory concentration (IC50) in test [1] and in test [2] was less than 100 nM throughout.
For the molecule `CO[C@H]1CCN(C(=O)[C@@H]2CCCC[C@H]2C(=O)N[C@@H](CNC(=O)[C@@H]2CCCN(CCCc3ccc4c(n3)NCCC4)C2)C(=O)O)C1` [Compound 268, (S)-2-((1R,2R)-2-((S)-3-methoxypyrrolidine-1-carbonyl)cyclohexane-1-carboxamido)-3-((R)-1-(3-(5,6,7,8-tetrahydro-1,8-naphthyridin-2-yl)propyl)piperidine-3-carboxamido)propanoic acid], the IC50 in test [1] and in test [2] was less than 100 nM throughout.
Take `O=C(O)C[C@H](CO[C@@H]1CCCN(CCc2ccc3c(n2)NCCC3)C1)c1ccccc1` [Compound 353]: the half-inhibitory concentration (IC50) in test [1] was more than 1000 nM; in test [2] it was 100 to 1000 nM.
The like results for `O=C(O)CC(NC(=O)[C@@H]1CCCN(CCCc2ccc3c(n2)NCCC3)C1)c1ccc2c(c1)OCC2` (stereo partly drawn) [Compound 217, 3-(2,3-dihydrobenzofuran-6-yl)-3-((R)-1-(3-(5,6,7,8-tetrahydro-1,8-naphthyridin-2-yl)propyl)piperidine-3-carboxamido)propanoic acid hydrochloride] were, in that order, less than 100 nM and less than 100 nM.
The like results for `O=C(O)C[C@@H](CO[C@@H]1CCCN(CCCc2ccc3c(n2)NCCC3)C1)c1ccnc(C2CC2)c1` [Compound 514] were, in that order, less than 100 nM and less than 100 nM.
Take `O=C(O)[C@@H](CCO[C@@H]1CCCN(CCCCc2ccc3c(n2)NCCC3)C1)NC(=O)C12CCC(CC1)CC2` [Compound 384]: the IC50 in test [1] and in test [2] was more than 1000 nM in each case.
As for `O=C(NC[C@H](Nc1ncnc2cc(F)c(F)cc12)C(=O)O)[C@@H]1CCCN(CCCc2ccc3c(n2)NCCC3)C1` [Compound 278, (2S)-2-[(6,7-difluoroquinazolin-4-yl)amino]-3-[[(3R)-1-[3-(5,6,7,8-tetrahydro-1,8-naphthyridin-2-yl)propyl]piperidine-3-carbonyl]amino]propanoic acid], the IC50 in test [1] and in test [2] was less than 100 nM throughout.
For `O=C(NC[C@H](NC(=O)[C@H]1CC2CCC1CC2)C(=O)O)[C@@H]1CCCN(CCCc2ccc3c(n2)NCCC3)C1` [Compound 305], the IC50 in test [1] and in test [2] was less than 100 nM in each case.
`O=C(O)C[C@H](CO[C@@H]1CCCN(CCCc2ccc3c(n2)NCCC3)C1)c1cccc(N2C[C@H]3CC[C@@H]2CO3)c1` [Compound 463]: the IC50 in test [1] and in test [2] was 100 to 1000 nM throughout.

Usually IC50 stands for the concentration that inhibits the measured activity by half. The low end stands for higher potency, the high end for lower potency.
